Assays:
[1] = test system: Aβ plaque-associated microglia and astrocytes; test: Plaque-associated microglia and astrocytes (MOAB-2 with Iba1 or GFAP co-staining); assay type: in vivo, APP/PS1 mice
Experimental: (§1) APP/PS1 mice of ages 6 months were randomly divided into vehicle (APP/PS1, n = 10) and treatment groups (AP5, n = 10), which were intragastrically administered with AP5 (40 mg/kg) once daily for consecutive 5 months. AP5 was dissolved in distilled water containing 1% sodium carboxymethyl cellulose.
(§2) The fixed hemibrains were paraffin-embedded and sectioned in the coronal plane. The slices were deparaffinized with xylene and rehydrated by a series of gradient alcohols. Antigen retrieval through microwave boiling was performed with 10 mM sodium citrate solution at pH 6.0. The slices were cooled down to room temperature and then rinsed in PBS solution. […]
(1:100, BAF2655, R&D, Minneapolis, MN, USA). […] For the quantification of Aβ plaque-associated microglia and astrocyte, Iba1- and GFAP-immunopositive cells around plaques were counted. On each slide, ten plaques were randomly determined and the microglia (nuclei) in the immediate vicinity (two times the plaque diameter) of each plaque were counted. For colocalization of PSD95 and synaptophysin, images were analyzed with the puncta analyzer plugin with a minimum pixel specification of 4 in Image Jand thresholding was consistent for every image. […]
anti-synaptophysin (1:1000, 67864-1-lg, Proteintech) overnight at 4°C. […] Densitometric analysis was performed using Quantity One software (Bio-Rad, Berkeley, CA, USA). […]

synaptophysin, PSD95 = test: Synaptophysin and PSD95 co-immunofluorescence and western blot, hippocampus; assay type: in vivo, APP/PS1 mice
Experimental: as §1, §2
Frozen hippocampus and cortex were homogenized in pre-cooling RIPA buffer (P0013B, Beyotime) supplemented with 1 mM phenylmethanesulfonyl fluoride (PMSF) and cocktail of protease and phosphatase inhibitors. […] Densitometric analysis was performed using Quantity One software (Bio-Rad, Berkeley, CA, United States).
Briefly, for ACh assay, the reactions were started by adding 100 µL of the Amplex Red reagent, HRP, choline oxidase, AChE working solution to each microplate well containing the controls and samples. […] Assay plates were incubated at room temperature for 30 min and protected from light, followed by detecting fluorescence of resorufin (λex = 544 nm, λem = 590 nm) in a fluorescence microplate reader. […]

## CCN(C)C(=O)Oc1cccc(/C=C2\Cc3cc(OC)c(OC)cc3C2=O)c1 [AP5, (E)-3-((5,6-dimethoxy-1-oxo-1,3-dihydro-2H-inden-2-ylidene)-methyl)phenylethyl(methyl)carbamate]
[1]; MOAB-2 and GFAP co-staining
  number of astrocytes around Aβ plaque: no statistical difference
[1]; MOAB-2 and Iba1 co-staining
  plaque-associated microglia: increased clustering of microglia surrounding a plaque
synaptophysin, PSD95; synaptophysin and PSD95 co-immunofluorescence, hippocampus CA3
  pre-, post- and double-positive synaptic puncta (synapse damage): markedly recovered
synaptophysin, PSD95; western blot, hippocampus
  expression levels of synaptophysin and PSD95: more than that in the APP/PS1 mice
